The target in test [1] is T1, Fc-fusion protein of human PSMA (hPSMA-Fc) (Homo sapiens, UniProt Q04609).
T1 construct: purchased Acro Biosystems PSA-H5264
The experiment in a line: Surface plasmon resonance assay (Biacore T200, single cycle kinetic). The format is binding. Conditions: hPSMA-Fc, 25° C., read-out: pKD CAT (converted). On the procedure:
Surface plasmon resonance (SPR) studies were performed using a Biacore™ T200 SPR system. Briefly, polarized light is directed towards a gold-labeled sensor surface, and minimum intensity reflected light is detected. The angle of reflected light changes as molecules bind and dissociate.
Fc-fusion protein of human PSMA (hPSMA-Fc, Acro Biosystems, Cat #PSA-H5264) was captured on a Fc-capture chip (Biacore™ CM5 sensor chip coated with ˜300 RU of an Fc-binding peptide). hPSMA-Fc was diluted in Running Buffer (HBST, 0.1% DMSO) to a final concentration of 100 nM and then flushed over the Fc-capture chip to immobilized ˜1000 RUs.
Stock solutions of test compounds were prepared by dissolving each compound in DMSO. DMSO stock solution were diluted 1:1000 in Running Buffer without DMSO. Further sequential dilutions were made with Running Buffer containing 0.1% DMSO. SPR binding analyses were performed in Single Cycle Kinetic (SCK) mode at 25° C. Flow cell coated with the Fc-binding peptide only served as reference flowcell. After each SCK run, hPSMA-Fc was removed with 10 mM glycine buffer, pH 1.5.
In between every three SCK measurements, a blank run with Running Buffer instead of test compound was included to correct for baseline drifts (double blanking method).
Table 5 describes the protocol steps for Fc-fusion target capturing and assessment of the binding kinetics.
For each test compound, SPR raw data in the form of resonance units (RU) were plotted as sensorgrams using the Biacore™ T200 control software. The signal from the blank sensorgram was subtracted from that of the test compound sensorgram (blank corrected). The blank corrected sensorgram was corrected for baseline drift by subtracting the sensorgram of a SCK run without the test compound (running buffer only). The dissociation constant (KD) was calculated from Blank-normalized SPR data using the 1:1 Langmuir binding model from the Biacore™ Insight Evaluation software. The pKD value (negative decadic logarithm of dissociation constant) was calculated using Microsoft Excel.

Test [2] deals with T2, PSMA-expressing C4-2 cells (Homo sapiens, UniProt Q04609).
T2 construct: PSMA-expressing C4-2 cells (ATCC, Cat. No. CRL-3314) were cultured in RPMI-1640; host or cells: C4-2 cells
The test is described as follows: FACS binding assay (competition with 50 nM PSM-0183). Conditions: C4-2 cells, read-out: pIC50 [C4-2] CAT (converted). The method, then: In order to determine binding of compounds according to the present invention to PSMA-expressing cells, a FACS binding assay was established.
PSMA-expressing C4-2 cells (ATCC, Cat. No. CRL-3314) were cultured in RPMI-1640 (Pan Biotech, Cat. No. P04-18050) including 10% fetal calf serum (Biochrom) and 100 U/ml penicillin and 100 μg/mL streptomycin (Sigma, Cat. No. P0781). Cells were detached with Accutase (Biolegend, Cat. No. BLD-423201) and washed in FACS buffer (PBS (Sigma, Cat. No. D8537) including 1% fetal calf serum). Cells were diluted in FACS buffer to a final concentration of 500,000 cells per mL. 200 μL of the cell suspension were transferred to a u-shaped non-binding 96-well plate (Greiner Bio-One, Cat. No. 650901) and cells were washed in ice-cold FACS buffer.
For IC50 determination, C4-2 cells were incubated with 50 nM PSM-0183 (Ac-Thr-Aib-Phe[Cys-Lys-Arg-Aib-Asn-Cys]-Tle-Thr-Asp-Ttds-Ttds-AF488N3K-NH2) in the presence of increasing concentrations of test compounds at 4° C. for 1 hour. After two wash steps with ice-cold FACS buffer, cells were analyzed in an Attune NxT flow cytometer. Median fluorescence intensities (MFI) of the FITC/AF488-channel were calculated by Attune NxT software. MFI values were plotted against peptide concentration and four parameter logistic (4PL) curve fitting and IC50/pIC50 calculations were performed using ActivityBase software (IDBS).
On the technique in general: A flow cytometer gives signals particle by particle.

Like-named read-outs stand apart in the source and are kept apart here. Numbered stars: 1 amine (or outer) side, 2 acyl side, 3 side chain; on linkers, the order of the positions; unused ones are H or OH. Bridge positions count the residues as written; N and C are the ends. Square brackets hold non-standard residues; d marks the D form. Peptide text beside a SMILES is read from it. * marks the point of attachment. X17 = N=c1ccc2c(-c3ccc(C(=O)NCCC(=O)N4Cc5ccccc5-c5c(nnn5CCCCCC(=O)NCCCOCCOCCOCCCNC(=O)CCC(=O)NCCCOCCOCCOCCCN*)-c5ccccc54)cc3C(=O)O)c3ccc(N)c(S(=O)(=O)O)c3oc-2c1S(=O)(=O)O; X3 = O=C(O)CN1CCN(CC(=O)O)CCN(CC(=O)NCCCOCCOCCOCCCN*)CCN(CC(=O)O)CC1; X18 = O=C(O)c1cccc(CN2CCOCCOCCN(Cc3cc(N*)cc(C(=O)O)n3)CCOCCOCC2)n1; DOTA = O=C(O)CN1CCN(CC(=O)O)CCN(CC(=O)*)CCN(CC(=O)O)CC1; X20 = CN(CCC[C@H](N[*:1])C(=O)[*:2])C(=N)N; Phe(4-Cl) = N[C@@H](Cc1ccc(Cl)cc1)C(=O)O; Arg(Me) = CNC(=N)NCCC[C@H](N)C(=O)O; Glutaryl = O=C(CCCC(=O)[*:2])[*:1]; X1 = O=C(CC1CCN([*:1])CC1)[*:2]; Cit = NC(=O)NCCC[C@H](N)C(=O)O; Lys(Me) = CNCCCC[C@H](N)C(=O)O; Suc = O=C(CCC(=O)[*:2])[*:1]; Tle = CC(C)(C)[C@H](N)C(=O)O; Aib = CC(C)(N)C(=O)O

T2 sequence (Q04609 whole entry): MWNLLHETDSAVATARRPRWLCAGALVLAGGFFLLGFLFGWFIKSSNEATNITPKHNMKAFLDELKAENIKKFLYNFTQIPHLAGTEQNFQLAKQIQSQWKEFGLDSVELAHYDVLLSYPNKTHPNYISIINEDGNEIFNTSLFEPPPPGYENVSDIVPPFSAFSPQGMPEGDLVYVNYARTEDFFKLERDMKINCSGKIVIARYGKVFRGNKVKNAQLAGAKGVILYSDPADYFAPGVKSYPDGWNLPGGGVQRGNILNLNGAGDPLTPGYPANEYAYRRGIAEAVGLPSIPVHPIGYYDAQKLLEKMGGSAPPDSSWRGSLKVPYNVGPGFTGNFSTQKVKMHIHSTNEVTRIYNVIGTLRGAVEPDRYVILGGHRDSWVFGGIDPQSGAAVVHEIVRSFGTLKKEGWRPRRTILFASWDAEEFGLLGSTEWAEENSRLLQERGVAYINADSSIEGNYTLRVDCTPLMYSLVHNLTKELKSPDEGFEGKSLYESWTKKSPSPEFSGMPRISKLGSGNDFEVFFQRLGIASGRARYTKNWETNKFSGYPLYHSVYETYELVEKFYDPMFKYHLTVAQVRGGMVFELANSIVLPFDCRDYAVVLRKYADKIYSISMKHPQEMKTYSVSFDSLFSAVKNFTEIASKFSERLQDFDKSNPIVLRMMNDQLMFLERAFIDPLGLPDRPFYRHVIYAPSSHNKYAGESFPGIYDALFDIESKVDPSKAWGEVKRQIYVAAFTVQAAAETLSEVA
T1 sequence (Q04609 44-750 limits assumed): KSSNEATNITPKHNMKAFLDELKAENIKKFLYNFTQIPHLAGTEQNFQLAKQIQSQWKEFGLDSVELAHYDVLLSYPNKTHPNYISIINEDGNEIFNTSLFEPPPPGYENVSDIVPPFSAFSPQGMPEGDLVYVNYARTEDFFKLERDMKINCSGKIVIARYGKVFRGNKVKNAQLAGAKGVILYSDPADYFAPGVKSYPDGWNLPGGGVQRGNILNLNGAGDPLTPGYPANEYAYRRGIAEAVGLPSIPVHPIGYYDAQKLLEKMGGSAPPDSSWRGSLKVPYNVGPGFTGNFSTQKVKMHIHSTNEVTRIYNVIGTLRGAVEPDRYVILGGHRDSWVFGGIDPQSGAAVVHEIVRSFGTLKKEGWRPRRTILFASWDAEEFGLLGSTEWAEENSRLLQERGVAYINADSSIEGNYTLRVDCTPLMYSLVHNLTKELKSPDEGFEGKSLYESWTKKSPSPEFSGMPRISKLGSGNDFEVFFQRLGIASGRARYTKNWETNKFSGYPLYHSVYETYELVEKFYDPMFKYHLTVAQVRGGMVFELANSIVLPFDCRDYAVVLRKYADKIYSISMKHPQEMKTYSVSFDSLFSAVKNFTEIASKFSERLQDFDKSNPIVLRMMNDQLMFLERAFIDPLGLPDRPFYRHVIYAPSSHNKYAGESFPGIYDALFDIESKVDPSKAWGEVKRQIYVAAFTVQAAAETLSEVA

With `CSCC[C@@H]1NC(=O)C(C)(C)NC(=O)[C@H](CCCNC(N)=O)NC(=O)[C@H](CCCCN)NC(=O)[C@@H](NC(=O)[C@H](Cc2ccc(Cl)cc2)NC(=O)C(C)(C)NC(=O)[C@@H](NC(C)=O)[C@@H](C)O)CSSC[C@@H](C(=O)N[C@H](C(=O)N[C@H](C(N)=O)[C@@H](C)O)C(C)(C)C)NC1=O` [PSM-0229, Ac-Thr-Aib-Pcf-[Cys-Lys-Arg-Aib-Met-Cys]-Tle-Thr-NH2] (Ac-T[Aib][Phe(4-Cl)]CK[Cit][Aib]MC[Tle]T-NH2; disulfide 4-9), in test [1] (SPR, single cycle kinetic, category), the Kd was under 12.6 nM.
`CC(C)C[C@H](NC(=O)[C@@H]1CSSC[C@H](NC(=O)[C@H](Cc2ccccc2)NC(=O)[C@H](C)NC(=O)[C@@H](NC(=O)CCC(=O)NCCCOCCOCCOCCCNC(=O)CN2CCN(CC(=O)O)CCN(CC(=O)O)CCN(CC(=O)O)CC2)[C@@H](C)O)C(=O)N[C@@H](CCCCN)C(=O)N[C@@H](CCCNC(=N)N)C(=O)N[C@@H](C)C(=O)N[C@@H](CC(N)=O)C(=O)N1)C(=O)N[C@H](C(=O)N[C@@H](CC(=O)O)C(N)=O)[C@@H](C)O` [PSM-0251, DOTA-Ttds-Thr-Ala-Phe-[Cys-Lys-Arg-Ala-Asn-Cys]-Leu-Thr-Asp-NH2] ({X3-Suc}-TAFCKRANCLTD-NH2; disulfide 4-9): in test [2] (FACS binding, competition with 50 nM PSM-0183, category), the IC50 is 200 to 1260 nM.
Turning to `C[C@@H](O)[C@H](NC(=O)CCC(=O)NCCCOCCOCCOCCCNC(=O)CCC(=O)NCCCOCCOCCOCCCNC(=O)CCCCCn1nnc2c1-c1ccccc1CN(C(=O)CCNC(=O)c1ccc(-c3c4ccc(=N)c(S(=O)(=O)O)c-4oc4c(S(=O)(=O)O)c(N)ccc34)c(C(=O)O)c1)c1ccccc1-2)C(=O)NC(C)(C)C(=O)N[C@@H](Cc1ccccc1)C(=O)N[C@H]1CSSC[C@@H](C(=O)N[C@H](C(=O)N[C@H](C(=O)N[C@@H](CC(=O)O)C(N)=O)[C@@H](C)O)C(C)(C)C)NC(=O)[C@H](CC(N)=O)NC(=O)C(C)(C)NC(=O)[C@H](CCCNC(=N)N)NC(=O)[C@H](CCCCN)NC1=O` [PSM-0272, AF488Ahx-Ttds-Ttds-Thr-Aib-Phe-[Cys-Lys-Arg-Aib-Asn-Cys]-Tle-Thr-Asp-NH2] ({X17-Suc}-T[Aib]FCKR[Aib]NC[Tle]TD-NH2; disulfide 4-9), the Kd in test [1] (PSMA SPR assay, pKD category) is under 12.6 nM.
With `CNCCCC[C@@H]1NC(=O)[C@@H](NC(=O)[C@H](Cc2ccc(Cl)cc2)NC(=O)C(C)(C)NC(=O)[C@@H](NC(=O)CC2CCN(C(=O)CCCC(=O)Nc3cc(CN4CCOCCOCCN(Cc5cccc(C(=O)O)n5)CCOCCOCC4)nc(C(=O)O)c3)CC2)[C@@H](C)O)CSSC[C@@H](C(=O)N[C@H](C(=O)N[C@H](C(N)=O)[C@@H](C)O)C(C)(C)C)NC(=O)[C@H](CC(N)=O)NC(=O)C(C)(C)NC(=O)[C@H](CCCNC(=N)NC)NC1=O` [PSM-0515, Macropa-Cmp-Thr-Aib-Pcf-[Cys-Lys(Me)-Arg(Me)-Aib-Asn-Cys]-Tle-Thr-NH2] ({X18-Glutaryl}-[X1]T[Aib][Phe(4-Cl)]C[Lys(Me)][Arg(Me)][Aib]NC[Tle]T-NH2; disulfide 5-10), the IC50 in test [2] (pIC50 category of FACS binding) was under 200 nM.
On to `CNCCCC[C@@H]1NC(=O)[C@@H](NC(=O)[C@H](Cc2ccc(Cl)cc2)NC(=O)C(C)(C)NC(=O)[C@@H](NC(=O)CC2CCN(C(=O)CN3CCN(CC(=O)O)CCN(CC(=O)O)CCN(CC(=O)O)CC3)CC2)[C@@H](C)O)CSSC[C@@H](C(=O)N[C@H](C(=O)N[C@H](C(N)=O)[C@@H](C)O)C(C)(C)C)NC(=O)[C@H](CC(N)=O)NC(=O)C(C)(C)NC(=O)[C@H](CCCN(C)C(=N)N)NC1=O` [PSM-0592, DOTA-Cmp-Thr-Aib-Pcf-[Cys-Lys(Me)-RMe1-Aib-Asn-Cys]-Tle-Thr-NH2] ({DOTA}-[X1]T[Aib][Phe(4-Cl)]C[Lys(Me)][X20][Aib]NC[Tle]T-NH2; disulfide 5-10), for which, in test [2] (FACS binding, category), the IC50 is under 200 nM.

Source of the values: patent publication US20260083865A1, “PROSTATE SPECIFIC MEMBRANE ANTIGEN (PSMA) LIGANDS AND USE THEREOF” (priority 2022, published 2026).
